This is an account of results in ChEMBL document CHEMBL1201862, “PubChem BioAssay data set” (2004).

Some test systems named below: CAKI-1; HOP-92; SR; RPMI-8226; UO-31; OVCAR-8; SK-MEL-5; SF-295; CCRF-CEM; HCT-15; LOX IMVI; MOLT-4; SK-MEL-2; SK-MEL-28; SNB-19; U-251; UACC-62; A498; NCI-H226.
Common to all, as to assay: inhibition of tumour cell growth, NCI panel, 48 h

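Following 48 hours of exposure in 96-well plates, responses at five concentrations were used to interpolate endpoints linearly. Abbreviation: GI50, concentration required for 50% inhibition of growth.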 Active and inactive are the calls of the source. No stated cut-off is given here; in the data, active = GI50 up to about 1.1 µM and inactive = higher.

On to `COc1ccc(C[C@H](N)C(=O)N2C[C@@H](CO)C[C@@H](n3cnc4c(N(C)C)ncnc43)C2)cc1`, for which the GI50 with CAKI-1, with HOP-92, in the experiment with SR, with RPMI-8226, in the experiment with UO-31 and in the experiment on OVCAR-8 was > 100 µM (inactive) each time. Further, the GI50 is > 100 µM (inactive) with SK-MEL-5; > 100 µM (inactive) in the experiment with SF-295; > 100 µM (inactive) in the experiment with CCRF-CEM; greater than 100 µM in the experiment on HCT-15; > 100 µM (inactive) in the experiment on LOX IMVI; > 100 µM (inactive) in the experiment on MOLT-4. For the same compound, the GI50 in the experiment on SK-MEL-2, in the experiment with SK-MEL-28, with SNB-19, with U-251 and in the experiment with UACC-62 was > 100 µM (inactive) in each case.
As for `CC(C)(C)[Si](C)(C)OCCCC#CCO`, the GI50 in the experiment with A498 is > 100 µM (inactive); in the experiment on CAKI-1 it was > 100 µM (inactive); in the experiment with RPMI-8226, 64.9 µM (inactive); in the experiment with UO-31 it was > 100 µM (inactive); in the experiment with OVCAR-8, > 100 µM (inactive); with SK-MEL-5 it was > 100 µM (inactive). The GI50 was > 100 µM (inactive) in the experiment on SF-295; 38.7 µM (inactive) in the experiment with CCRF-CEM; greater than 100 µM in the experiment on HCT-15; > 100 µM (inactive) in the experiment with LOX IMVI; 92.7 µM (inactive) with MOLT-4; > 100 µM (inactive) with SK-MEL-2. Further, the GI50 with SK-MEL-28, in the experiment with SNB-19, in the experiment on U-251 and with UACC-62 was > 100 µM (inactive) each time.
Consider `Clc1ccc(C2SCc3nc4ccccc4n32)cc1` (configuration not stated), for which the GI50 is 20.9 µM (inactive) in the experiment on A498; 16.8 µM (inactive) in the experiment on CAKI-1; 2.54 µM (inactive) in the experiment on HOP-92; 14.9 µM (inactive) in the experiment with RPMI-8226; 13.5 µM (inactive) in the experiment on UO-31; 29.1 µM (inactive) with OVCAR-8. Moreover, the GI50 in the experiment with SK-MEL-5 was 10.3 µM (inactive); in the experiment on SF-295 it was 26.2 µM (inactive); in the experiment with CCRF-CEM, 23.2 µM (inactive); in the experiment on HCT-15, 27.4 µM; in the experiment with LOX IMVI, 14.9 µM (inactive); with MOLT-4, 18 µM (inactive). The GI50 in the experiment with NCI-H226 was 19.4 µM (inactive); with SK-MEL-2 it was 16 µM (inactive); in the experiment on SK-MEL-28, 21.2 µM (inactive); with SNB-19, 14.8 µM (inactive); with U-251, 24 µM (inactive); in the experiment with UACC-62, 13.8 µM (inactive).
As to `COc1ccc(NC(=S)NNC(=O)c2nsc3ccccc23)cc1`, the GI50 in the experiment with HOP-92 is 17.4 µM (inactive); in the experiment on SR, 31 µM (inactive); in the experiment with RPMI-8226, 22.3 µM (inactive); in the experiment with UO-31, 25.2 µM (inactive); in the experiment on OVCAR-8, 43.7 µM (inactive); in the experiment with SK-MEL-5, 30.8 µM (inactive). Further, the GI50 in the experiment on HCT-15 was 21.8 µM; in the experiment on LOX IMVI, 34.4 µM (inactive); in the experiment on MOLT-4, 24.5 µM (inactive); in the experiment with SK-MEL-2, 25.1 µM (inactive); in the experiment with SK-MEL-28, 34.3 µM (inactive); with SNB-19, 26.9 µM (inactive). Further, the GI50 in the experiment with U-251 is 40.8 µM (inactive); in the experiment with UACC-62, 27.7 µM (inactive).
In the case of `C1CNCCNCCNCCN1`, the GI50 in the experiment with A498 was > 100 µM (inactive); in the experiment with SR it was 51.6 µM (inactive); with RPMI-8226, > 100 µM (inactive); in the experiment on UO-31, > 100 µM (inactive); in the experiment on OVCAR-8, > 100 µM (inactive); with SK-MEL-5, > 100 µM (inactive). Moreover, the GI50 with SF-295 was > 100 µM (inactive); in the experiment with CCRF-CEM it was > 100 µM (inactive); in the experiment with HCT-15, greater than 10 µM; in the experiment with LOX IMVI, > 100 µM (inactive); in the experiment on MOLT-4, 64.6 µM (inactive); with NCI-H226, > 100 µM (inactive). Moreover, the GI50 in the experiment with SK-MEL-2 is > 100 µM (inactive); in the experiment with SK-MEL-28, > 100 µM (inactive); in the experiment on SNB-19, > 100 µM (inactive); in the experiment with U-251, 24 µM (inactive); with UACC-62, > 100 µM (inactive).
